We go through 3 compounds from the NIST ThermoML archive (doi:10.1016/j.fluid.2007.12.005).

The term vapor or sublimation pressure denotes the pressure of vapour in equilibrium with the condensed phase.

The conditions of the series: 313.15 K; Liquid; Closed cell (Static) method.

The structures appear in SMILES notation. Values joined by “and” are separate entries in the source; they are usually repeats but may differ in a detail not shown here. Equal values may be shown once. ± gives the expanded uncertainty stated by the source.

In the case of `CCOC(C)(C)C` [2-ethoxy-2-methylpropane], the “vapor or sublimation pressure” value was 31.64 ± 0.12 kPa and 31.65 ± 0.12 kPa.

Take `CCCCCCC` [heptane]: the “vapor or sublimation pressure” value was 12.31 ± 0.056 kPa and 12.32 ± 0.056 kPa.

Regarding `C=CCCCC` [hex-1-ene], the “vapor or sublimation pressure” value is 44.96 ± 0.24 kPa and 44.95 ± 0.24 kPa.
